Here are results for two compounds from patent US20130017272A1, “METHOD FOR TREATING NON-SMALL CELL LUNG CANCER” (priority 2011, published 2013).

Like-named read-outs stand apart in the source and are kept apart here. Strand notation (5' to 3'): a small letter for the sugar, then the base; units joined by * are phosphorothioate-linked, units joined directly phosphodiester-linked; [ ] holds rarer units or linkages, { } end groups; capitals alone tell only the bases. e = 2'-O-(2-methoxyethyl) (MOE); [5mC] = 5-methylcytosine; d = 2'-deoxy (DNA)

One data set relates to stage IIIB or IV NSCLC. Description: Phase 1-2 study of weekly custirsen plus a gemcitabine/platinum-based regimen: survival by baseline serum clusterin. Format: in vivo, human. The method, then:
The relationship between serum clusterin levels and the duration of individual survival was evaluated during a phase 1-2 study of weekly custirsen plus a gemcitabine/platinum-based regimen in patients with stage IIIB or IV NSCLC. Not all of the patients in this study had baseline levels of clusterin measured. However, starting with N=69 subjects with measured baseline clusterin levels, fitting the Cox proportional hazards (PH) model with baseline clusterin as sole predictor gives p=0.10; the coefficient is positive, so that higher clusterin is associated with increased survival risk. Among the N=55 subjects who also had post-baseline data collected, fitting the same PH model gives p=0.05, again with positive coefficient.
A careful search for possible cutpoints, using all N=69 subjects with baseline clusterin levels, produced 71 μg/mL as a strong candidate.
Among all N=69 subjects with a baseline clusterin level, there were […] with clusterin ≦71 μg/mL (median survival time was 18.8 months), and N=26 subjects with baseline clusterin >71 μg/mL (median survival time was 10.2 months); the log-rank p-value=0.004. Removing the N=14 early discontinuers leaves N=35 subjects with baseline clusterin ≦71 μg/mL (median survival time was 28.7 months), and N=20 subjects with baseline clusterin >71 μg/mL (median survival time was 12.2 months); the log-rank p-value=0.0002.

The conditions of data set [1]: in vivo.
Method: Three doses of 640 mg custirsen are administered IV during the Loading Dose Period (Days −9 to −1). There is at least one “non-infusion” day between each administration of custirsen (i.e. every other day) during the Loading Dose Period and between the third loading dose of custirsen and Day 1 of Cycle 1. The day prior to Day 1 of Cycle 1 (Day 0) is a “no treatment” day. There are no more than 4 days between the last loading dose and Day 1 of Cycle 1. A common schedule is to give the three loading doses of custirsen on Monday, Wednesday and Friday with Day 1, Cycle 1 starting on the following Monday. Up to nine days are allowed for completing the three loading doses prior to Day 0 to account for clinic visits, weekends, and holidays. Subjects receive each dose of custirsen as a 2 hour infusion.
The next data set deals with clusterin. To be noted: broad range of studies (Miyake et al. 2005); cited from earlier work.
Data set [2] deals with cancerous human prostate, breast, ovarian, lung, renal, bladder, and melanoma cells. The settings on record: broad range of studies (Miyake et al. 2005); cited from earlier work.
The conditions of data set [3]: cited from earlier work.
In a further data set the test system is NSCLC. To be noted: 2nd line setting, from reports; cited from earlier work.
The target in the next data set is CYP3A4 (Homo sapiens, UniProt P08684). To be noted: cited from earlier work.
Sequence of CYP3A4 (P08684 whole entry): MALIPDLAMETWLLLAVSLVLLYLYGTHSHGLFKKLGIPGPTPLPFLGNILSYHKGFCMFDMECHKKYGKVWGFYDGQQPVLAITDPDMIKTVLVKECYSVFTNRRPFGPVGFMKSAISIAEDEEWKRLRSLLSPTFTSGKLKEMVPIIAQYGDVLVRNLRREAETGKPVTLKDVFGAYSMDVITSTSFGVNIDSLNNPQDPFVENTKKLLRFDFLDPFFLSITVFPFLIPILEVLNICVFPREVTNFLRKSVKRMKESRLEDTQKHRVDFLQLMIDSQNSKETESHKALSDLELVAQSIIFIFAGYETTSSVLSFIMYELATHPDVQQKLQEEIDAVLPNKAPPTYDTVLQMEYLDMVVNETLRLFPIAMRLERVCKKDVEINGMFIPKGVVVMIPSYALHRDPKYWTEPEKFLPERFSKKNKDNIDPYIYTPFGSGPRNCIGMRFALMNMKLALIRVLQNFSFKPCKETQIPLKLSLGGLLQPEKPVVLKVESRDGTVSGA

As for “custirsen: anti-clusterin antisense oligonucleotide CAGCAGCAGAGTCTTCATCAT, phosphorothioate backbone, 2′-O-methoxyethyl at nucleotides 1-4 and 18-21, 5-methylcytosines at 1, 4, 19 (antisense e[5mC]*eA*eG*e[5mC]*dA*dG*dC*dA*dG*dA*dG*dT*dC*dT*dT*dC*dA*eT*e[5mC]*eA*eT; listed as Homo sapiens)”, the median survival time in the data set on stage IIIB or IV NSCLC (baseline clusterin >71 μg/mL, N=20, early discontinuers removed) amounted to 12.2 months; in the data set on stage IIIB or IV NSCLC (baseline clusterin >71 μg/mL, N=26 of all N=69 subjects) it was 10.2 months; in the data set on stage IIIB or IV NSCLC (baseline clusterin ≦71 μg/mL, N=35, early discontinuers removed), 28.7 months; in the data set on stage IIIB or IV NSCLC (baseline clusterin ≦71 μg/mL, N=45 of all N=69 subjects), 18.8 months. Also, in data set [1], the “subjects with grade 1-2 constitutional symptoms (e.g., fever and chills)” value is on record as 50-60%. For the same compound, the expression of clusterin entry in the data set on clusterin is reported as “potently reduces”. Also, the “sensitization of cancer cells to chemotherapy” value in data set [2] was “sensitizes”.

Regarding `CC(=O)O[C@@]12CO[C@@H]1C[C@H](O)[C@@]1(C)C(=O)[C@H](O)C3=C(C)[C@@H](OC(=O)[C@H](O)[C@@H](NC(=O)OC(C)(C)C)c4ccccc4)C[C@@](O)([C@@H](OC(=O)c4ccccc4)[C@H]21)C3(C)C` [Docetaxel], the “patients with grade 4 neutropenia (<500 cells/mm^3)” value in data set [3] (60 mg/m^2) was 75%; in data set [3] (100 mg/m^2) it was 85%. Further, the “patients with neutropenia (<2,000 neutrophils/mm^3)” value in data set [3] (60-100 mg/m^2) is listed as “virtually all”. Further, the “median PFS” value in the data set with NSCLC was “about 3 months”. Besides, the CYP3A4 substrate result at CYP3A4 was “substrate”.
